Measurements published in ChEMBL document CHEMBL1130586 (Bioorg Med Chem Lett, 1998).

Tests used:
[1] = molecular target: Histamine H1 receptor (Cavia porcellus) (UniProt P31389); assay: Partial agonist activity against Histamine H1 receptor in guinea pig aorta; type: functional, tissue-based
[2] = molecular target: Histamine H1 receptor (Cavia porcellus) (UniProt P31389); assay: Compound was tested for its partial agonist activity in the presence of 100 nM mepyramine against Histamine H1 receptor in guinea pig ileum.; type: functional, tissue-based
[3] = molecular target: Histamine H1 receptor (Cavia porcellus) (UniProt P31389); assay: Compound was tested for binding affinity against guinea pig ileum; type: tissue-based
[4] = molecular target: Histamine H1 receptor (Cavia porcellus) (UniProt P31389); assay: Compound was tested for its partial agonist activity in the presence of 1 nM mepyramine against Histamine H1 receptor in guinea pig ileum.; type: functional, tissue-based
[5] = molecular target: Histamine H1 receptor (Cavia porcellus) (UniProt P31389); assay: Compound was tested for its partial agonist activity in the presence of 10 nM mepyramine against Histamine H1 receptor in guinea pig ileum.; type: functional, tissue-based
[6] = molecular target: Histamine H1 receptor (Cavia porcellus) (UniProt P31389); assay: Relative potency against Histamine H1 receptor in guinea pig ileum.; type: functional, tissue-based
[7] = molecular target: Histamine H1 receptor (Cavia porcellus) (UniProt P31389); assay: Partial agonist activity against Histamine H1 receptor in guinea pig ileum.; type: functional, tissue-based
[8] = molecular target: Histamine H2 receptor (Cavia porcellus) (UniProt P47747); assay: Compound was tested for agonist activity against histamine H2 receptor of guinea pig atrium; type: functional, tissue-based; settings: Cardiac atrium
[9] = molecular target: Histamine H1 receptor (Cavia porcellus) (UniProt P31389); assay: Relative potency against Histamine H1 receptor of guinea pig aorta; type: functional, tissue-based
Histamine H1 receptor [10] = molecular target: T1, Histamine H1 receptor (Cavia porcellus, UniProt P31389); assay: Contractile effects antagonized by mepyramine (0.3-100 nM) against Histamine H1 receptor in guinea pig ileum; type: functional, tissue-based; settings: read-out: pA2 (converted)
[11] = molecular target: Histamine H1 receptor (Cavia porcellus) (UniProt P31389); assay: Compound was tested for its […] in the presence of mepyramine (1-1000 nM) against Histamine H1 receptor of guinea pig aorta.; type: functional
[12] = molecular target: Histamine H1 receptor (Cavia porcellus) (UniProt P31389); assay: Partial agonist activity with mepyramine against Histamine H1 receptor in guinea pig ileum.; type: functional, tissue-based
[13] = molecular target: Muscarinic acetylcholine receptor M3 (Cavia porcellus, UniProt Q8VH26); assay: Compound was tested for its agonist activity against M3-acetylcholine receptor of guinea pig ileum.; type: functional, tissue-based; settings: read-out: pA2 (converted)
Histamine H1 receptor [14] = molecular target: T1, Histamine H1 receptor; assay: Compound was tested for the contractile effects antagonized by mepyramine (1-1000 nM) against Histamine H1 receptor of guinea pig aorta.; type: functional; settings: read-out: pA2 (converted)
Histamine H3 receptor = Histamine H3 receptor (Cavia porcellus, UniProt Q9JI35); assay: Compound was tested for the agonist activity against histamine H3 receptor of guinea pig ileum; type: functional, tissue-based; settings: read-out: pA2 (converted)
Chain of Histamine H3 receptor (Q9JI35 whole entry): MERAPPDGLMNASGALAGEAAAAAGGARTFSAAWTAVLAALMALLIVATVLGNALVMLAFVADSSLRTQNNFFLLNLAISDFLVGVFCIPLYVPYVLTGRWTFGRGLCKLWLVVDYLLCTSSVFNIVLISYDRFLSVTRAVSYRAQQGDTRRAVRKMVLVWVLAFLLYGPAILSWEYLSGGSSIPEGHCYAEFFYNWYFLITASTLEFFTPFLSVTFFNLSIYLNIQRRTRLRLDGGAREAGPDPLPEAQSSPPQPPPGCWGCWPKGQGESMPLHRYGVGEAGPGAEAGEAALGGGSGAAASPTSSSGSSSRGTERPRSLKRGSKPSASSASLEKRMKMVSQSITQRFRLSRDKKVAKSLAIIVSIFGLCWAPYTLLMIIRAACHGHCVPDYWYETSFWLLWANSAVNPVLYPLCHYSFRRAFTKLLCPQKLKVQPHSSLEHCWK

Chain of Histamine H2 receptor (Cavia porcellus) (P47747 whole entry): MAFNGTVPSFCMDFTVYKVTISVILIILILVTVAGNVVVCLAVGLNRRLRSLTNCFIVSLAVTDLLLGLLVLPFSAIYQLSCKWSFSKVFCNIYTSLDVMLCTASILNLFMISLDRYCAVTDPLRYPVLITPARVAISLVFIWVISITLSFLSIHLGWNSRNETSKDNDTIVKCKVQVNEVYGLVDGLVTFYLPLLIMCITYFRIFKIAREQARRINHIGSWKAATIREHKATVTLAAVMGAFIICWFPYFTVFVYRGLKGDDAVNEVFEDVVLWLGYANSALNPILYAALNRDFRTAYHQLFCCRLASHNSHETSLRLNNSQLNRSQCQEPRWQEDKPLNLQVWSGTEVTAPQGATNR
Chain of Muscarinic acetylcholine receptor M3 (Q8VH26 whole entry): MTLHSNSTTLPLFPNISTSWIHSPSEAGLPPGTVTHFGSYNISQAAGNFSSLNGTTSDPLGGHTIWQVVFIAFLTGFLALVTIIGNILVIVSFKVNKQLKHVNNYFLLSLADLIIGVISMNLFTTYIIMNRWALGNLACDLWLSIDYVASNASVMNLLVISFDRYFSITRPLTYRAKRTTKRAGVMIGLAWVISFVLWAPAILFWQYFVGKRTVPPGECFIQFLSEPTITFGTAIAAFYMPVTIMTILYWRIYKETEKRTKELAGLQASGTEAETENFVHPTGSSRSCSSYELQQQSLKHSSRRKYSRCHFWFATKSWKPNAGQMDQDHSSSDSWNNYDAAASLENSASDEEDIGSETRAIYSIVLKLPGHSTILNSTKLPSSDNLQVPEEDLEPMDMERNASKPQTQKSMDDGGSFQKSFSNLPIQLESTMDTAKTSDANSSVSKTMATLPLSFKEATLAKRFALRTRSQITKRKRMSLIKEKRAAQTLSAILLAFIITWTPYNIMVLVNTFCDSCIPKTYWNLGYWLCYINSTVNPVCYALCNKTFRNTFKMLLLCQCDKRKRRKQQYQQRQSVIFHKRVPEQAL
Chain of Histamine H1 receptor (Cavia porcellus) (P31389 whole entry): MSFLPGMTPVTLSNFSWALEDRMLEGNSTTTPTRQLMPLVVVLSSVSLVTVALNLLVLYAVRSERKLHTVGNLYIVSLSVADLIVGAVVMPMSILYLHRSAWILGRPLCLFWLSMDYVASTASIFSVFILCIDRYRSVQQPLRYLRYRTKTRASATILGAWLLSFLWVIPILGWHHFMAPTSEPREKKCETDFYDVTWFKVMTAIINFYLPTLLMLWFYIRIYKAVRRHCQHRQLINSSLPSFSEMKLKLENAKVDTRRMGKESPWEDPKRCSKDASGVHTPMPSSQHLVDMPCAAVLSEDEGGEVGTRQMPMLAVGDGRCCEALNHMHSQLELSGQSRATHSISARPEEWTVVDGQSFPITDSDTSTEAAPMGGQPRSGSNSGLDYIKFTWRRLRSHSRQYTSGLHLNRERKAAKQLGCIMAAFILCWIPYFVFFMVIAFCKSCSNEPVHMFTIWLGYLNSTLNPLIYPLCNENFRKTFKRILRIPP
T1 sequence (P31389 whole entry): as above

SMILES | Emax [1] [%] | Emax [2] [%] | pKp [3] | Emax [4] [%] | Emax [5] [%] | Relative potency [6] [%] | Emax [7] [%] | pD2 [8] | Relative potency [9] [%] | Kb (Histamine H1 receptor [10]) [nM] | Emax [11] [%] | Emax [12] [%] | Kb [13] [nM] | Kb (Histamine H1 receptor [14]) [nM] | Kb (Histamine H3 receptor) [nM]
NCCc1c[nH]c(-c2cccc(C(F)(F)F)c2)n1 | 80 | 65 | 6.23 | 97 | 80 | 128 | 100 | 3.48 | 94 |  |  |  |  |  | 
CNCCc1c[nH]c(-c2cccc(C(F)(F)F)c2)n1 | 59 |  | 6.47 |  |  | 174 | 97 | 4.04 | 217 | 0.912 | 66 | 77 | 115000 | 0.832 | 4370
FC(F)(F)c1cccc(-c2nc(CCNC3CC3)c[nH]2)c1 |  |  | 6.12 |  |  | 28 | 36 | 4.36 |  | 0.741 |  | 20 |  |  | 
NCCc1c[nH]c(-c2cccc(Br)c2)n1 | 64 |  | 5.97 |  |  |  | 100 |  |  | 0.741 |  |  | 155000 | 1.26 | 6310
CCNCCc1c[nH]c(-c2cccc(C(F)(F)F)c2)n1 |  |  | 5.68 |  |  | 30 | 63 | 4.55 |  | 1.05 |  | 40 | 69200 |  | 2340
NCCc1c[nH]cn1 | 100 |  |  |  |  |  | 100 |  |  |  | 100 | 100 |  |  | 
CN(C)CCc1c[nH]c(-c2cccc(Br)c2)n1 | 58 |  | 6.2 |  |  | 87 | 81 | 4.74 | 31 | 0.708 | 49 | 58 | 64600 | 1.15 | 1450
CNCCc1c[nH]c(-c2cccc(Br)c2)n1 | 76 |  | 6.17 |  |  | 109 | 95 | 3.86 | 43 | 0.741 | 75 | 71 | 112000 | 0.977 | 11700
NCCc1cnc(-c2cccc(C(F)(F)F)c2)[nH]1 |  |  |  |  |  |  |  |  |  | 0.891 |  |  | 107000 | 0.977 | 6170
CN(C)CCc1c[nH]c(-c2cccc(C(F)(F)F)c2)n1 | 54 |  | 6.39 |  |  | 95 | 88 | 4.56 | 169 | 1.2 | 64 | 67 | 26900 | 1.41 | 1120
